Where “and” joins values, the source holds several entries; their conditions need not be identical. Identical values can stand only once. Toxic doses and inconclusive results are not listed. The calls were made as follows: active = survival T/C of 150% or more; inactive = T/C below 125% in these data.
Tested on: P388 leukemia ip, CD2F1 mice, survival T/C
Test: NCI In Vivo Anticancer Drug Screen. Data for tumor model P388 Leukemia (intraperitoneal) in CD2F1 (CDF1) mice
Conditions: endpoint: median survival time, higher = longer survival
Outline: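 Mice carrying the transplanted tumor received test compound or vehicle. Survival was recorded in each group, and the value is the treated-group measurement divided by that of the vehicle-treated control group.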

[1] = dose: 60.0 mg/kg/injection, schedule: Q01DX005 (ip), vehicle: saline with Tween-80
[2] = dose: 120.0 mg/kg/injection, schedule: Q01DX005 (ip), vehicle: saline with Tween-80
[3] = dose: 240.0 mg/kg/injection, schedule: Q01DX005 (ip), vehicle: saline with Tween-80
[4] = dose: 50.0 mg/kg/injection, schedule: Q01DX009 (ip), vehicle: saline with Tween-80
[5] = dose: 60.0 mg/kg/injection, schedule: Q01DX005 (ip), vehicle: Klucel (hydroxypropylcellulose) (HPC)
[6] = dose: 120.0 mg/kg/injection, schedule: Q01DX005 (ip), vehicle: Klucel (hydroxypropylcellulose) (HPC)
[7] = dose: 240.0 mg/kg/injection, schedule: Q01DX005 (ip), vehicle: Klucel (hydroxypropylcellulose) (HPC)
[8] = dose: 50.0 mg/kg/injection, schedule: Q01DX005 (ip), vehicle: saline with Tween-80
[9] = dose: 100.0 mg/kg/injection, schedule: Q01DX005 (ip), vehicle: saline with Tween-80
[10] = dose: 200.0 mg/kg/injection, schedule: Q01DX005 (ip), vehicle: saline with Tween-80
[11] = dose: 50.0 mg/kg/injection, schedule: Q01DX009 (ip), vehicle: Klucel (hydroxypropylcellulose) (HPC)
[12] = dose: 100.0 mg/kg/injection, schedule: Q01DX009 (ip), vehicle: Klucel (hydroxypropylcellulose) (HPC)
[13] = dose: 200.0 mg/kg/injection, schedule: Q01DX009 (ip), vehicle: Klucel (hydroxypropylcellulose) (HPC)
[14] = dose: 30.0 mg/kg/injection, schedule: Q01DX005 (ip), vehicle: saline with Tween-80
[15] = dose: 100.0 mg/kg/injection, schedule: Q01DX009 (ip), vehicle: saline with Tween-80
[16] = dose: 200.0 mg/kg/injection, schedule: Q01DX009 (ip), vehicle: saline with Tween-80

Measured: T/C

CCOC(=O)C1=NN(c2ccccc2)C(C(N)=O)C1 (centres undefined)
inactive: [1] 100 % of control | [2] 101 % of control | [3] 101 % of control

CCN(CCc1ccc(N)cc1)C(Cc1ccccc1)c1cccc(OC)c1 (centres undefined)
inactive: dose: 12.5 mg/kg/injection, schedule: Q01DX009 (ip), vehicle: saline with Tween-80 95 % of control | dose: 25.0 mg/kg/injection, schedule: Q01DX009 (ip), vehicle: saline with Tween-80 95 % of control | [4] 87 % of control

COC(=O)C1CC2c3cc4c(cc3CCN2CC1C(=O)OC)OCO4 (centres undefined)
inactive: dose: 0.63 mg/kg/injection, schedule: Q01DX009 (ip), vehicle: distilled water + Tween-80 101 % of control | dose: 1.25 mg/kg/injection, schedule: Q01DX009 (ip), vehicle: distilled water + Tween-80 99 % of control | dose: 2.5 mg/kg/injection, schedule: Q01DX009 (ip), vehicle: distilled water + Tween-80 106 % of control | dose: 5.0 mg/kg/injection, schedule: Q01DX009 (ip), vehicle: distilled water + Tween-80 97 % of control | dose: 10.0 mg/kg/injection, schedule: Q01DX009 (ip), vehicle: distilled water + Tween-80 108 % of control | dose: 20.0 mg/kg/injection, schedule: Q01DX009 (ip), vehicle: distilled water + Tween-80 106 % of control

O=C1C2(CCCC13N=NCC3c1ccccc1)N=NCC2c1ccccc1 (centres undefined)
inactive: [5] 93 % of control | [6] 88 % of control | [7] 93 % of control

Nc1nc(-c2ccccn2)cc2cc(Cl)ccc12
inactive: [1] 99 % of control | [2] 115 % of control

O=S(=O)(N/N=C/c1cccc(Cl)c1)c1ccccc1
inactive: [5] 109 % of control | [6] 104 % of control | [7] 105 % of control

CC1OC(C)(C)OC1C(=O)OCc1ccccc1 (centres undefined)
inactive: dose: 25.0 mg/kg/injection, schedule: Q01DX005 (ip), vehicle: water 96 % of control | dose: 50.0 mg/kg/injection, schedule: Q01DX005 (ip), vehicle: water 105 % of control | dose: 100.0 mg/kg/injection, schedule: Q01DX005 (ip), vehicle: water 100 % of control | dose: 200.0 mg/kg/injection, schedule: Q01DX005 (ip), vehicle: water 100 % of control | dose: 400.0 mg/kg/injection, schedule: Q01DX005 (ip), vehicle: water 100 % of control

CC1CC2(CC(COc3ccccc3C(N)=O)OC2=O)C(=O)O1 (centres undefined)
inactive: [8] 100 % of control | [9] 100 % of control | [10] 97 % of control

CC(C)=C1[C@@H]2C=C[C@@H]1[C@H]1C(=O)[C@@H]3O[C@]3(CO)C(=O)[C@H]12
inactive: [8] 106 % of control | [9] 101 % of control | [10] 108 % of control

Cc1ccc(O)c(C(c2ccc3c(c2)OCO3)N2CCOCC2)c1 (centres undefined)
inactive: [1] 101 % of control | [2] 100 % of control | [3] 97 % of control

CC(CCc1ccc2c(c1)OCO2)NCC(O)c1ccc(O)c(C(N)=O)c1 (centres undefined)
inactive: [11] 93 % of control | [12] 94 % of control | [13] 100 % of control

[N-]=[N+]=N/C=C1\CCOC1=O
inactive: dose: 7.5 mg/kg/injection, schedule: Q01DX005 (ip), vehicle: saline with Tween-80 101 % of control | dose: 15.0 mg/kg/injection, schedule: Q01DX005 (ip), vehicle: saline with Tween-80 100 % of control | [14] 99 % of control and 100 % of control | [3] 99 % of control

CC1(C)C[C@H](OC2CCCCO2)[C@H]2O[C@@]2(C)C1 (some centres undefined)
inactive: dose: 100.0 mg/kg/injection, schedule: Q04DX002 (ip), vehicle: saline 103 % of control | dose: 200.0 mg/kg/injection, schedule: Q04DX002 (ip), vehicle: saline 102 % of control | dose: 400.0 mg/kg/injection, schedule: Q04DX002 (ip), vehicle: saline 96 % of control

Oc1ccc2ccccc2c1/C=N/NC(=S)N/N=C/c1c(O)ccc2ccccc12
inactive: dose: 0.38 mg/kg/injection, schedule: Q01DX005 (ip), vehicle: saline with Tween-80 97 % of control | dose: 0.75 mg/kg/injection, schedule: Q01DX005 (ip), vehicle: saline with Tween-80 97 % of control | dose: 1.5 mg/kg/injection, schedule: Q01DX005 (ip), vehicle: saline with Tween-80 90 % of control and 92 % of control | dose: 6.0 mg/kg/injection, schedule: Q01DX005 (ip), vehicle: saline with Tween-80 86 % of control | [9] 96 % of control | [10] 116 % of control

CN(C)c1ccc(C=C2C(=O)CC(C)(C)CC2=O)cc1
inactive: dose: 25.0 mg/kg/injection, schedule: Q01DX009 (ip), vehicle: Klucel (hydroxypropylcellulose) (HPC) 106 % of control | [11] 97 % of control | [12] 92 % of control | [13] 93 % of control

CN(C)c1ccc([N+]([O-])=Nc2ccc3ccccc3c2)cc1
inactive: [14] 96 % of control | [1] 87 % of control and 96 % of control | [2] 89 % of control | [3] 90 % of control

CCCCCCOC(=O)C(O)c1ccccc1 (centres undefined)
inactive: [15] 100 % of control | [16] 109 % of control

N[C@H](Cc1c[nH]c2ccccc12)C(=O)O
inactive: [15] 98 % of control | [16] 103 % of control | dose: 400.0 mg/kg/injection, schedule: Q01DX009 (ip), vehicle: saline with Tween-80 103 % of control

O=C(O)c1ccc(O)c(O)c1.[NH2-].[NH2-].[NH2-].[NH2-].[Ru+4]
inactive: dose: 87.5 mg/kg/injection, schedule: Q04DX002 (ip), vehicle: saline 104 % of control | dose: 175.0 mg/kg/injection, schedule: Q04DX002 (ip), vehicle: saline 108 % of control | dose: 350.0 mg/kg/injection, schedule: Q04DX002 (ip), vehicle: saline 105 % of control

Cc1ccc(N2C(=O)CSC2=S)cc1Cl
inactive: dose: 50.0 mg/kg/injection, schedule: Q01DX009 (ip), vehicle: saline 103 % of control | dose: 100.0 mg/kg/injection, schedule: Q01DX009 (ip), vehicle: saline 94 % of control | dose: 200.0 mg/kg/injection, schedule: Q01DX009 (ip), vehicle: saline 100 % of control

Nc1cc2oc(=O)[nH]c2cc1Cl
inactive: dose: 50.0 mg/kg/injection, schedule: Q01DX005 (ip), vehicle: Klucel (hydroxypropylcellulose) (HPC) 90 % of control | dose: 100.0 mg/kg/injection, schedule: Q01DX005 (ip), vehicle: Klucel (hydroxypropylcellulose) (HPC) 92 % of control | dose: 200.0 mg/kg/injection, schedule: Q01DX005 (ip), vehicle: Klucel (hydroxypropylcellulose) (HPC) 103 % of control

C#CCOc1ccccc1C(=O)NNc1ccc([N+](=O)[O-])cc1[N+](=O)[O-]
inactive: [4] 97 % of control | [15] 87 % of control

Reference: PubChem BioAssay AID330 (DTP/NCI, 2004)
